According to patent US7858609B2, “Solid ganaxolone formulations and methods for the making and use thereof” (Marinus Pharmaceuticals, priority 2005, dated 2010):

Test: Solubility of ganaxolone using water soluble beta cyclodextrins
Type: physicochemical
Details: using water soluble beta cyclodextrins (beta-sulfobutyl-cyclodextrin, 2-hydroxypropylbetacyclodextrin)
Source text: Ganaxolone formulations suitable for intramuscular, subcutaneous, or intravenous injection may comprise physiologically acceptable sterile aqueous or non-aqueous solutions, dispersions, suspensions or emulsions, and sterile powders for reconstitution into sterile injectable solutions or dispersions. Examples of suitable aqueous and non-aqueous carriers, diluents, solvents, or vehicles including water, ethanol, polyols (propylene glycol, polyethylene-glycol, glycerol, cremophor and the like), suitable mixtures thereof, vegetable oils (such as olive oil) and injectable organic esters such as ethyl oleate. Additionally, Ganaxolone can be dissolved at concentrations of >1 mg/ml using water soluble beta cyclodextrins (e.g. beta-sulfobutyl-cyclodextrin and 2-hydroxypropylbetacyclodextrin. Proper fluidity can be maintained, for example, by the use of a coating such as lecithin, by the maintenance of the required particle size in the case of dispersions, and by the use of surfactants. Ganaxolone formulations suitable for subcutaneous injection may also contain additives such as preserving, wetting, emulsifying, and dispensing agents. Prevention of the growth of microorganisms can be ensured by various antibacterial and antifungal agents, such as parabens, benzoic acid, benzyl alcohol, chlorobutanol, phenol, sorbic acid, and the like. […]

Compound: CC(=O)[C@H]1CC[C@H]2[C@@H]3CC[C@H]4C[C@](C)(O)CC[C@]4(C)[C@H]3CC[C@]12C [Ganaxolone, 3α-hydroxy-3β-methyl-5α-pregnan-20-one]
- dissolved concentration: > 1 mg/mL
